Test results published in patent publication US9670227B2, “Thienopyrimidine derivatives, a process for their preparation and pharmaceutical compositions containing them” (LES LABORATOIRES SERVIER, priority 2013, dated 2017).

What was measured:
Mcl-1 protein = Mcl-1 protein (UniProtKB primary accession number: Q07820) (Homo sapiens, UniProt Q07820); assay: Inhibition of Mcl-1 by fluorescence polarisation, Method 1; type: binding; conditions: fluorescence polarisation test; Method 2 values are underlined in the patent (underlining not visible here); read-out: IC50 (M) Mcl-1 FP
Mcl-1 protein, sequence (Q07820 whole entry): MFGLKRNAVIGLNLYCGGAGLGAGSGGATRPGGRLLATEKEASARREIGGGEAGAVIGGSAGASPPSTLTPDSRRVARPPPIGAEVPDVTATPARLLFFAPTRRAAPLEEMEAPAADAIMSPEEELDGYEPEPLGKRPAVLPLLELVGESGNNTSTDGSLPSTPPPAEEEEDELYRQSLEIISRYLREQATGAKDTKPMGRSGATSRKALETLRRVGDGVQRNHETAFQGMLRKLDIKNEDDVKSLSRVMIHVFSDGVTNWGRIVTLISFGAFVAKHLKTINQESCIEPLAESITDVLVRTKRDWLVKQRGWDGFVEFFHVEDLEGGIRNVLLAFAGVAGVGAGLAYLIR
Summary of the method: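 Fluorescence polarisation competition with an 11-point compound dilution series (final DMSO 5%). Mcl-1 protein at 5 nM and fluorescein-labelled ligand at 1 nM (final) in 10 mM HEPES, 150 mM NaCl, 0.05% Tween 20, pH 7.4.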

[1] = system: H929 multiple myeloma tumour line; assay: In vitro cytotoxicity, Microculture Tetrazolium Assay; type: cell-based; conditions: Homo sapiens, NCI-H929, 48 h, H929 cells, 48 hours exposure, MTT; read-out: IC50 (μM) MTT H929
Description: The cytotoxicity studies were carried out on the H929 multiple myeloma tumour line.
The cells are distributed onto microplates and exposed to the test compounds for 48 hours.

SMILES | IC50 (Mcl-1 protein) [M] | IC50 [1] [µM]
Cc1c(-c2c(-c3ccc(F)cc3)sc3ncnc(OC(Cc4ccccc4OCc4ccnc(C5CCCC5)n4)C(=O)O)c23)ccc(OCCN2CCN(C)CC2)c1Cl [Example 28, (2R)-2-{[(5Sa)-5-{3-chloro-2-methyl-4-[2-(4-methylpiperazin-1-yl)ethoxy]phenyl}-6-(4-fluorophenyl)thieno[2,3-d]pyrimidin-4-yl]oxy}-3-{2-[(2-cyclopentylpyrimidin-4-yl)methoxy]phenyl}propanoic acid] | 4.5e-09 | 0.021
Cc1c(-c2c(-c3ccc(F)cc3)sc3ncnc(OC(Cc4ccccc4OCc4ccnc(CC5CC5)n4)C(=O)O)c23)ccc(OCCN2CCN(C)CC2)c1Cl [Example 39, (2R)-2-{[(5Sa)-5-{3-chloro-2-methyl-4-[2-(4-methylpiperazin-1-yl)ethoxy]phenyl}-6-(4-fluorophenyl)thieno[2,3-d]pyrimidin-4-yl]oxy}-3-(2-{[2-(cyclopropylmethyl)pyrimidin-4-yl]methoxy}phenyl)propanoic acid] | 4.8e-09 | 0.015
Cc1c(-c2c(-c3ccc(F)cc3)sc3ncnc(OC(Cc4ccccc4OCc4ccnc(Cc5ccccc5)n4)C(=O)O)c23)ccc(OCCN2CCN(C)CC2)c1Cl [Example 40, (2R)-3-{2-[(2-benzylpyrimidin-4-yl)methoxy]phenyl}-2-{[(5Sa)-5-{3-chloro-2-methyl-4-[2-(4-methylpiperazin-1-yl)ethoxy]phenyl}-6-(4-fluorophenyl)thieno[2,3-d]pyrimidin-4-yl]oxy}propanoic acid] | 5.6e-09 | 0.008
Cc1c(-c2c(-c3ccc(F)cc3)sc3ncnc(OC(Cc4ccccc4OCc4ccnc(CCN(C)C)n4)C(=O)O)c23)ccc(OCCN2CCN(C)CC2)c1Cl [Example 43, (2R)-2-{[(5Sa)-5-{3-chloro-2-methyl-4-[2-(4-methylpiperazin-1-yl)ethoxy]phenyl}-6-(4-fluorophenyl)thieno[2,3-d]pyrimidin-4-yl]oxy}-3-[2-({2-[2-(dimethylamino)ethyl]pyrimidin-4-yl}methoxy)phenyl]propanoic acid] | 9.8e-09 | 0.465
Cc1c(-c2c(-c3ccc(F)cc3)sc3ncnc(OC(Cc4ccccc4OCc4ccnc(COc5ccccc5)n4)C(=O)O)c23)ccc(OCCN2CCN(C)CC2)c1Cl [Example 46, (2R)-2-{[(5Sa)-5-{3-chloro-2-methyl-4-[2-(4-methylpiperazin-1-yl)ethoxy]phenyl}-6-(4-fluorophenyl)thieno[2,3-d]pyrimidin-4-yl]oxy}-3-(2-{[2-(phenoxymethyl)pyrimidin-4-yl]methoxy}phenyl)propanoic acid] | 7.3e-09 | 0.024
COCCN(C)c1nccc(COc2ccccc2CC(Oc2ncnc3sc(-c4ccc(F)cc4)c(-c4ccc(OCCN5CCN(C)CC5)c(Cl)c4C)c23)C(=O)O)n1 [Example 48, (2R)-2-{[(5Sa)-5-{3-chloro-2-methyl-4-[2-(4-methylpiperazin-1-yl)ethoxy]phenyl}-6-(4-fluorophenyl)thieno[2,3-d]pyrimidin-4-yl]oxy}-3-[2-({2-[(2-methoxyethyl)(methyl)amino]pyrimidin-4-yl}methoxy)phenyl]propanoic acid] | 1.1e-08 | 0.122
Cc1c(-c2c(-c3ccc(F)cc3)sc3ncnc(OC(Cc4ccccc4OCc4ccnc(N5CCN(C)CC5)n4)C(=O)O)c23)ccc(OCCN2CCN(C)CC2)c1Cl [Example 50, (2R)-2-{[(5Sa)-5-{3-chloro-2-methyl-4-[2-(4-methylpiperazin-1-yl)ethoxy]phenyl}-6-(4-fluorophenyl)thieno[2,3-d]pyrimidin-4-yl]oxy}-3-(2-{[2-(4-methylpiperazin-1-yl)pyrimidin-4-yl]methoxy}phenyl)propanoic acid] | 7.6e-09 | 0.076
Cc1c(-c2c(-c3ccc(F)cc3)sc3ncnc(OC(Cc4ccccc4OCc4ccnc(Oc5ccccc5)n4)C(=O)O)c23)ccc(OCCN2CCN(C)CC2)c1Cl [Example 56, (2R)-2-{[(5Sa)-5-{3-chloro-2-methyl-4-[2-(4-methylpiperazin-1-yl)ethoxy]phenyl}-6-(4-fluorophenyl)thieno[2,3-d]pyrimidin-4-yl]oxy}-3-{2-[(2-phenoxypyrimidin-4-yl)methoxy]phenyl}propanoic acid] | 4.4e-09 | 0.022
Cc1c(-c2c(-c3ccc(F)cc3)sc3ncnc(OC(Cc4ccccc4OCc4ccnc(OCc5cncn5C)n4)C(=O)O)c23)ccc(OCCN2CCN(C)CC2)c1Cl [Example 60, (2R)-2-{[(5Sa)-5-{3-chloro-2-methyl-4-[2-(4-methylpiperazin-1-yl)ethoxy]phenyl}-6-(4-fluorophenyl)thieno[2,3-d]pyrimidin-4-yl]oxy}-3-[2-({2-[(1-methyl-1H-imidazol-5-yl)methoxy]pyrimidin-4-yl}methoxy)phenyl]propanoic acid] | 2.4e-09 | 0.17

Continued, in another order:

IC50 (Mcl-1 protein) [M] | SMILES | IC50 [1] [µM]
3.3e-09 | Cc1c(-c2c(-c3ccc(F)cc3)sc3ncnc(OC(Cc4ccccc4OCc4ccnc(-c5ccccc5)n4)C(=O)O)c23)ccc(OCCN2CCN(C)CC2)c1Cl [Example 29, (2R)-2-{[(5Sa)-5-{3-chloro-2-methyl-4-[2-(4-methylpiperazin-1-yl)ethoxy]phenyl}-6-(4-fluorophenyl)thieno[2,3-d]pyrimidin-4-yl]oxy}-3-{2-[(2-phenylpyrimidin-4-yl)methoxy]phenyl}propanoic acid] | 0.007
7.8e-09 | Cc1c(-c2c(-c3ccc(F)cc3)sc3ncnc(OC(Cc4ccccc4OCc4ccnc(-c5cccs5)n4)C(=O)O)c23)ccc(OCCN2CCN(C)CC2)c1Cl [Example 33, (2R)-2-{[(5Sa)-5-{3-chloro-2-methyl-4-[2-(4-methylpiperazin-1-yl)ethoxy]phenyl}-6-(4-fluorophenyl)thieno[2,3-d]pyrimidin-4-yl]oxy}-3-(2-{[2-(thiophen-2-yl)pyrimidin-4-yl]methoxy}phenyl)propanoic acid] | 0.017
4.8e-09 | Cc1c(-c2c(-c3ccc(F)cc3)sc3ncnc(OC(Cc4ccccc4OCc4ccnc(-c5ccoc5)n4)C(=O)O)c23)ccc(OCCN2CCN(C)CC2)c1Cl [Example 35, (2R)-2-{[(5Sa)-5-{3-chloro-2-methyl-4-[2-(4-methylpiperazin-1-yl)ethoxy]phenyl}-6-(4-fluorophenyl)thieno[2,3-d]pyrimidin-4-yl]oxy}-3-(2-{[2-(furan-3-yl)pyrimidin-4-yl]methoxy}phenyl)propanoic acid] | 0.027
1.1e-08 | Cc1c(-c2c(-c3ccc(F)cc3)sc3ncnc(OC(Cc4ccccc4OCc4ccnc(-c5nccs5)n4)C(=O)O)c23)ccc(OCCN2CCN(C)CC2)c1Cl [Example 36, (2R)-2-{[(5Sa)-5-{3-chloro-2-methyl-4-[2-(4-methylpiperazin-1-yl)ethoxy]phenyl}-6-(4-fluorophenyl)thieno[2,3-d]pyrimidin-4-yl]oxy}-3-(2-{[2-(1,3-thiazol-2-yl)pyrimidin-4-yl]methoxy}phenyl)propanoic acid] | 0.015
6e-09 | CCc1nccc(COc2ccccc2CC(Oc2ncnc3sc(-c4ccc(F)cc4)c(-c4ccc(OCCN5CCN(C)CC5)c(Cl)c4C)c23)C(=O)O)n1 [Example 37, (2R)-2-{[(5Sa)-5-{3-chloro-2-methyl-4-[2-(4-methylpiperazin-1-yl)ethoxy]phenyl}-6-(4-fluorophenyl)thieno[2,3-d]pyrimidin-4-yl]oxy}-3-{2-[(2-ethylpyrimidin-4-yl)methoxy]phenyl}propanoic acid] | 0.014
1.9e-09 | Cc1c(-c2c(-c3ccc(F)cc3)sc3ncnc(OC(Cc4ccccc4OCc4ccnc(CC(C)C)n4)C(=O)O)c23)ccc(OCCN2CCN(C)CC2)c1Cl [Example 38, (2R)-2-{[(5Sa)-5-{3-chloro-2-methyl-4-[2-(4-methylpiperazin-1-yl)ethoxy]phenyl}-6-(4-fluorophenyl)thieno[2,3-d]pyrimidin-4-yl]oxy}-3-(2-{[2-(2-methylpropyl)pyrimidin-4-yl]methoxy}phenyl)propanoic acid] | 0.016
3.2e-09 | CCCCc1nccc(COc2ccccc2CC(Oc2ncnc3sc(-c4ccc(F)cc4)c(-c4ccc(OCCN5CCN(C)CC5)c(Cl)c4C)c23)C(=O)O)n1 [Example 42, (2R)-3-{2-[(2-butylpyrimidin-4-yl)methoxy]phenyl}-2-{[(5Sa)-5-{3-chloro-2-methyl-4-[2-(4-methylpiperazin-1-yl)ethoxy]phenyl}-6-(4-fluorophenyl)thieno[2,3-d]pyrimidin-4-yl]oxy}propanoic acid] | 0.012
3.5e-09 | Cc1c(-c2c(-c3ccc(F)cc3)sc3ncnc(OC(Cc4ccccc4OCc4ccnc(-n5ccnn5)n4)C(=O)O)c23)ccc(OCCN2CCN(C)CC2)c1Cl [Example 51, (2R)-2-{[(5Sa)-5-{3-chloro-2-methyl-4-[2-(4-methylpiperazin-1-yl)ethoxy]phenyl}-6-(4-fluorophenyl)thieno[2,3-d]pyrimidin-4-yl]oxy}-3-(2-{[2-(1H-1,2,3-triazol-1-yl)pyrimidin-4-yl]methoxy}phenyl)propanoic acid] | 0.038
4e-09 | Cc1c(-c2c(-c3ccc(F)cc3)sc3ncnc(OC(Cc4ccccc4OCc4ccnc(OCc5ccncc5)n4)C(=O)O)c23)ccc(OCCN2CCN(C)CC2)c1Cl [Example 59, (2R)-2-{[(5Sa)-5-{3-chloro-2-methyl-4-[2-(4-methylpiperazin-1-yl)ethoxy]phenyl}-6-(4-fluorophenyl)thieno[2,3-d]pyrimidin-4-yl]oxy}-3-(2-{[2-(pyridin-4-ylmethoxy)pyrimidin-4-yl]methoxy}phenyl)propanoic acid] | 0.021
